Test results as given in patent publication US20210069230A1, “SYNERGISTIC DRUG COMBINATIONS PREDICTED FROM GENOMIC FEATURES AND SINGLE-AGENT RESPONSE PROFILES” (THE BROAD INSTITUTE, INC., priority 2018, published 2021).

Assays:
[1] = system: G402 cells; test: Overexpression of MGLL WT or enzyme-dead MGLL S132A, GSK-J4 sensitivity; format: cell-based
Experimental: Cell lines were taken from viably frozen stocks of the same original provenance as for CTRP and DepMap data, with identity confirmed by SNP-based DNA fingerprinting as described previously (12, 13, 39). Cell lines were propagated using the same media and culture conditions as for CTRPv2.0 experiments. For drug-treatment assays, 1000 cells per well were plated into 30 or […], of media in 384-well plates. For live-cell imaging, cells were plated into clear-bottom plates (Corning) and imaged on an IncuCyte S3 throughout the course of the experiment. For CellTiter-Glo experiments, the initial viability of a subset of plated cells was established at the same time as compound addition using CellTiter-Glo as described previously (24). Remaining cells were exposed to compounds and/or vehicle (constant DMSO volume) using a Tecan D300e Digital Dispenser, and CellTiter-Glo was added 72 hours later. DMSO- and D0-normalized concentration-response curves were generated using four-parameter nonlinear regression using the drc package in R (40). […] For calculation of drug combination effects, curves were fit and deviation from the null model (Loewe additivity) assessed using the BIGL package in R (reference: PMID 29263342) (41). […] Overall significance was assessed using the bootstrapped meanR test (n=1000 iterations), and per-concentration significance using maxR, as described by the package authors. […]

[2] = system: KMRC3 cells; test: IncuCyte live-cell microscopy of cellular proliferation; format: cell-based
Experimental: (§1) Cell lines were taken from viably frozen stocks of the same original provenance as for CTRP and DepMap data, with identity confirmed by SNP-based DNA fingerprinting as described previously (12, 13, 39). Cell lines were propagated using the same media and culture conditions as for CTRPv2.0 experiments. […] For live-cell imaging, cells were plated into clear-bottom plates (Corning) and imaged on an IncuCyte S3 throughout the course of the experiment. For CellTiter-Glo experiments, the initial viability of a subset of plated cells was established at the same time as compound addition using CellTiter-Glo as described previously (24). […] DMSO- and D0-normalized concentration-response curves were generated using four-parameter nonlinear regression using the drc package in R (40). Biphasic curves were also fit and prioritized relative to standard four-parameter curves where appropriate using the BIC (Bayesian information criteria) metric. […] General-purpose optimization (Nelder-Mean algorithm) was used for single-agent fits, and the “model” option was used to predict variance. Overall significance was assessed using the bootstrapped meanR test (n=1000 iterations), and per-concentration significance using maxR, as described by the package authors.

[3] = cited from earlier work
[4] = system: ATF4/metallothionein/ER stress; conditions: cited from earlier work
[5] = system: G402 and CJM cells overexpressing MGLL; test: Lentiviral ORF overexpression, compound sensitivity (CellTiter-Glo, GR); format: cell-based; conditions: 72 hours
Experimental: as §1
Infection and selection were carried out according to GPP Viral Infection protocols, followed by cell seeding in 384-well plates for compound treatment or harvesting for Western blotting as described above.
Parental cell lines were virally transduced with cDNAs that constitutively overexpressed BCL2L1, AIFM2, or MGLL (in G402 and CJM cells); ABCB1 or MGMT (in WM2664 cells); SLC7A11 (in BT12 and G402 cells); MCL1 (in HCC1500 cells); or IRS2 (in T47D cells) and subsequently drug sensitivity was measured. To account for potential differences in growth rates and to distinguish between cytostatic and cytotoxic drug responses, the normalized growth rate inhibition (GR) metric was used to assess cell viability (FIG. 3A) (18).

[6] = target: MGLL (Homo sapiens, UniProt Q99685); test: Recombinant protein/mass spec assay of MGLL-mediated modification; format: biochemical
Description: The GSK-J4-modifying impact of MGLL is examined further via a recombinant protein/mass spec assay.

[7] = system: HEC1A and SUIT2 cells; test: CRISPR-Cas9 knockout of MGLL, GSK-J4 sensitivity; format: cell-based; conditions: 4 different sgRNAs
Experimental: Cas9 stably-infected HEC1A, MEWO, SUIT2, and WM2664 cells and sgRNAs (pXPR_BRD003 vector) targeting AIFM2, IRS2, MGLL, or control guides (non-cutting) were acquired from the GPP (FIG. 23). Cell line identities were confirmed to match parental cells using SNP fingerprinting. Virus was generated and infection carried out as described above. After puromycin selection (3 μg/mL for MEWO, 1.5 μg/mL for WM2664, 2 μg/mL for SUIT2 and HEC1A), cells were seeded in 384-well plates for compound treatment or harvested for Western blotting as described above.
Further, MGLL knockout in HEC1A cells was rescued by overexpression of MGLL when using an sgRNA that targeted MGLL across an intron-exon boundary and that therefore could not cut the MGLL ORF.

MGLL, sequence (Q99685 whole entry): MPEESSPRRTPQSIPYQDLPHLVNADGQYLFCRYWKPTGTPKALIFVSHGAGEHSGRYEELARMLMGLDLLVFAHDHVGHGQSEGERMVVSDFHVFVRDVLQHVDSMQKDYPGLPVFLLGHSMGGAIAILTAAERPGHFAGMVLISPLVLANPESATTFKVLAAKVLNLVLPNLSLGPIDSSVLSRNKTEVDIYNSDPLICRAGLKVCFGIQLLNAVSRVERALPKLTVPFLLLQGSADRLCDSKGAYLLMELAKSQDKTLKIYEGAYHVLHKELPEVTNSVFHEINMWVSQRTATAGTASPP

Compound: CCOC(=O)CCNc1cc(N2CCc3ccccc3CC2)nc(-c2ccccn2)n1 [GSK-J4]
- sensitivity of MGLL S132A overexpressing cells versus parental or control-infected cells ([1]; MGLL S132A): equally sensitive
- effect of MGLL WT overexpression ([1]; MGLL WT): significant resistance
- rescue of proliferation effects by MGLL [2]: durably rescued
- time at which effects on cell proliferation were observed [2]: ≤ 12 h
- cellular permeability [3]: high cellular permeability
- time to induction of ATF4/metallothionein/ER stress [4]: ≤ 6 h
- shift in GR50 conferred by MGLL overexpression [5]: 20 fold
- MGLL-mediated modification [6]: confirmed
- effect of knockout of MGLL on response [7]: sensitize
